# Key:
# [1] = test system: LDL receptor-deficient mice; experiment: Effect on atherosclerosis in an in vivo atherosclerosis model (2): LDL receptor-deficient mice; conditions: for Inhibitory effect on arteriosclerosis (in words): LDL receptor-deficient mice; for Area of Arteriosclerotic lesions (mm^2): 0.5% in high-fat diet, 13 weeks, arcus aorta
# Source text: Effect on Atherosclerosis in an in vivo Atherosclerosis Model (2)
# In order to evaluate the inhibitory effect of the compound of Example 1 on atherosclerosis in an in vivo atherosclerosis, LDL receptor-deficient mice were used.
# One of the remaining two groups similarly received a high-fat diet containing neither probucol nor the compound of Example 1 and was used as a control and the other one group similarly received a normal, chow diet containing neither probucol nor the compound of Example 1.
# (§1) After administration of the compound for 13 weeks, the arcus aorta was removed from each of the animals, transversely sectioned and stained with Sudan IV. The area of arteriosclerotic lesions was determined by an image analysis under an optical microscope. The average of the area of arteriosclerotic lesions in the aucus aortae was calculated for each animal. The number of animals used for the evaluation was 5 for the normal chow diet group consisting of female mice and 7-9 for the other groups.
# [2] = test system: LDL receptor/apolipoprotein E double hetero-deficient mice; experiment: Effect on atherosclerosis in an in vivo atherosclerosis model (3): LDL receptor/Apo E hetero-deficient mice; conditions: for Inhibitory effect on arteriosclerosis (in words): LDL receptor/Apo E hetero-deficient mice; for Area of Arteriosclerotic lesions (mm^2): female mice, 0.5% in high-fat diet, 6 months, arcus aorta
# Source text: Effect on Atherosclerosis in an in vivo Atherosclerosis Model (3)
# In order to evaluate the inhibitory effect of the compound of Example 1 on atherosclerosis in an in vivo atherosclerosis model, LDL receptor/apolipoprotein E double hetero-deficient (LDL receptor/Apo E hetero-deficient) mice were used.
# One of the remaining two groups similarly received a high-fat feed containing neither probucol nor the compound of Example 1 and was used as a control and the other one group similarly received a normal, chow diet containing neither probucol nor the compound of Example 1.
# as §1, with “6 months,” for “13 weeks,”, “2” for “5”, “feed” for “chow diet”, “group” for “group consisting of female mice”, “5-6” for “7-9”
# [3] = test system: Watanabe Heritable Hyperlipidemic (WHHL) rabbits; experiment: Effect on atherosclerosis in an in vivo atherosclerosis model (1): WHHL rabbits; design: species or system rabbit; conditions: for Lesions in arch section (%) / Lesions in the whole aorta (%): 6 months
# Source text: Effect on Atherosclerosis in an in vivo Atherosclerosis Model (1)
# In order to evaluate the inhibitory effect of the compound of Example 1 on atherosclerosis in an in vivo atherosclerosis model, Watanabe Heritable Hyperlipidemic (WHHL) rabbits were used.
# Specifically, 4 groups of 4 or 5 WHHL rabbits (Kbl: 2 to 3-month-old male) were conditioned for a week, and then 3 groups of them received 1% probucol and 0.2% and 0.5% Example 1 compound contained in a normal chow diet, respectively, by limited feeding (40 g/kg) once a day for 6 months. The other one group similarly received the normal chow diet containing neither probucol nor the compound of Example 1 and was used as a control.
# After administration of the compound for 6 months, the aorta was removed from each of the animals and visualized to prepare a photograph of the inside of the aortic sample. White fat deposition area which represents arteriosclerotic lesions was determined by the image analysis on the photograph for each of three parts of the aortic sample (arch, chest and abdomen). From the results, the proportions (percentage) of the fat deposition area to the overall area for the arch section and the whole aorta were obtained. Four or five animals were used for each group for the evaluation.
# [4] = test system: LDL receptor-deficient mice; experiment: Effect on formation of xanthoma in an in vivo xanthoma model; conditions: for Inhibitory effect on formation of xanthomas (in words): LDL receptor-deficient mice; for Xanthoma score: 0.5% in high-fat diet, 13 weeks, forefeet and palpebrae, total score
# Source text: Effect on Formation of Xanthoma in an in vivo Xanthoma Model
# In order to evaluate the inhibitory effect of the compound of Example 1 on xanthoma in an in vivo xanthoma model, LDL receptor-deficient mice were used.
# One of the remaining two groups similarly received a high-fat feed containing neither probucol nor the compound of Example 1 and was used as a control and the other one group similarly received a normal, chow diet feed containing neither probucol nor the compound of Example 1.
# After administration of the compound for 13 weeks, xanthomas were scored in both forefeet and palpebrae based on the appearance thereof and the scores were totalized. The number of animals used for the evaluation was 5 for the normal feed group consisting of female mice and 7-9 for the other groups.
# femoral atheroscleroses = conditions: literature report; cited from earlier work
Structure (SMILES),Inhibitory effect on arteriosclerosis (in words) [1],Area of Arteriosclerotic lesions (mm^2) ([1]; female mice),Area of Arteriosclerotic lesions (mm^2) ([1]; male mice),Inhibitory effect on arteriosclerosis (in words) [2],Area of Arteriosclerotic lesions (mm^2) [2] [mm^2],Inhibitory effect on atherosclerosis (in words) [3],Lesions in arch section (%) ([3]; 0.2% in normal chow diet),Lesions in the whole aorta (%) ([3]; 0.2% in normal chow diet),Lesions in arch section (%) ([3]; 0.5% in normal chow diet),Lesions in the whole aorta (%) ([3]; 0.5% in normal chow diet),Atherosclerosis inhibitory effect compared with probucol (in words) ([3]; at a half of the dosage of probucol),Inhibitory effect on formation of xanthomas (in words) [4],Xanthoma score ([4]; female mice),Xanthoma score ([4]; male mice),Lesions in the whole aorta (%) ([3]; 1% in normal chow diet),"Lesions in arch section (%) ([3]; 1% in normal chow diet, fat deposition area / overall area)",Therapeutic effect on atherosclerosis in clinical tests (in words) (femoral atheroscleroses)
"CCCCCC1(CCCCC)Cc2c(cc(C(C)(C)C)c(O)c2C(C)(C)C)O1 [Example 1, 4,6-di-t-butyl-2,2-di-n-pentyl-5-hydroxy-2,3-dihydrobenzofuran]",exhibits an inhibitory effect,0.192,0.185,strong inhibitory effect,0.150,strong inhibitory effect,65.7 ± 3.7,44.3 ± 6.8,52.6 ± 7.4,37.4 ± 5.7,comparable to that of probucol,strong inhibitory effect,1.25 ± 0.25,0.29 ± 0.20,,,
"CC(C)(Sc1cc(C(C)(C)C)c(O)c(C(C)(C)C)c1)Sc1cc(C(C)(C)C)c(O)c(C(C)(C)C)c1 [Probucol, probucol, reference compound]",not observed,0.245,0.376,not observed,0.451,,,,,,,not observed,3.43 ± 0.30,3.13 ± 0.30,25.2 ± 2.6,53.9 ± 5.6,no therapeutic effect
